Experimental data from ChEMBL document CHEMBL5518209, “Caltrop-like Small-Molecule Antidotes That Neutralize Unfractionated Heparin and Low-Molecular-Weight Heparin In Vivo” (J Med Chem, 2024).
Calls of active or inactive are those of the source. The calls are words filed in the database; no cut-off is given here.

What was measured:
Mus musculus [1] = test: In vivo antagonism of dalteparin sodium induced anticoagulation in ICR mouse assessed as blood loss at 0.4 mg/kg, iv administered via tail vein pretreated with heparin for 5 mins followed by compound addition and measured after 5 mins (reference value: 324.4 +/- 139.5 microL); format: functional
[2] = Toxicity in ICR mouse assessed as effect on animal activity at 0.4 to 25 mg/kg, iv administered as single dose through tail vein and measured after 3 to 14 days; format: organism-based; settings: in vivo, dose lower 0.4 mg/kg, time lower 3 day, dose upper 25 mg/kg, time upper 14 day
Homo sapiens [3] = species: Homo sapiens; test: Neutralization of dalteparin sodium in human poor platelet plasma at 10 to 50 ug/ml by aPTT assay relative to control; format: cell-free; settings: dose 10-50 µg/ml
[4] = Toxicity in Sprague-Dawley rat assessed as change in urine indexes at 0.4 mg/kg, iv measured after 5 hrs; format: organism-based; settings: in vivo
[5] = Binding affinity to unfractionated heparin in saline at pH 7.4 assessed as change in entropy by ITC analysis
[6] = Toxicity in ICR mouse assessed as histopathological changes in liver at 25 mg/kg, iv administered as single dose through tail vein and measured after 14 days by H and E staining based analysis; format: organism-based; settings: in vivo, 336 h, time 14 day
Homo sapiens [7] = species: Homo sapiens; test: Reversal of anticoagulation of enoxaparin sodium in human whole blood assessed as restoration of normal coagulation rate at 5 to 20 ug/ml incubated for 5 mins by thromboelastography; format: tissue-based; settings: dose 5-20 µg/ml
Mus musculus [8] = test: In vivo antagonism of unfractionated heparin induced anticoagulation in ICR mouse assessed as blood loss at 0.4 mg/kg, iv administered via tail vein pretreated with heparin for 5 mins followed by compound addition and measured after 5 mins (reference value: 324.4 +/- 139.5 microL); format: functional
[9] = Binding affinity to unfractionated heparin in saline at pH 7.4 assessed as increase in fluorescence by measuring inflection point by fluorescence titration method
Homo sapiens [10] = species: Homo sapiens; test: Reversal of anticoagulation of dalteparin sodium in human whole blood assessed as minimum effective dose incubated for 5 mins by thromboelastography; format: tissue-based
[11] = Blood compatibility in bovine plasma assessed as activated partial thromboplastin time at <45 ug/ml by turbidimetry method; format: toxicity, cell-free, Bos taurus; settings: cattle, dose < 45 µg/ml
[12] = Binding affinity to nadroparin calcium in saline at pH 7.4 assessed as binding constant by ITC analysis
Homo sapiens [13] = species: Homo sapiens; test: Neutralization of enoxaparin sodium in human poor platelet plasma at 10 to 50 ug/ml by aPTT assay relative to control; format: cell-free; settings: dose 10-50 µg/ml
[14] = Binding affinity to dalteparin sodium in saline at pH 7.4 assessed as binding constant by ITC analysis
Bos taurus = species: Bos taurus; test: Neutralization of dalteparin sodium in bovine plasma at 10 to 60 ug/ml by aPTT assay; format: cell-free; settings: dose 10-60 µg/ml
[15] = Cytotoxicity against human MCF7 cells assessed as cell viability at 300 ug/ml incubated for 24 hrs by CCK-8 assay relative to control; format: toxicity, cell-based; settings: at 300 µg/mL, read-out: Activity
Blood [16] = test: Ex vivo neutralization of enoxaparin sodium in Sprague-Dawley rat whole blood assessed as restoration of blood coagulation at 10 to 15 ug/ml incubated for 15 mins; format: functional, tissue-based; settings: dose 10-15 µg/ml
Homo sapiens [17] = species: Homo sapiens; test: Reversal of anticoagulation of nadroparin calcium in human whole blood assessed as restoration of normal coagulation rate at 5 to 20 ug/ml incubated for 5 mins by thromboelastography; format: tissue-based; settings: dose 5-20 µg/ml
Rattus norvegicus = test: In vivo antagonism of enoxaparin sodium induced anticoagulation in Sprague-Dawley rat assessed as clotting strength at 0.4 mg/kg, iv administered via tail vein pretreated with enoxaparin sodium for 5 mins followed by compound addition and measured after 2.5 mins by thromboelastography; format: functional
[18] = Binding affinity to dalteparin sodium in saline at pH 7.4 assessed as change in gibbs free energy by ITC analysis
[19] = Binding affinity to enoxaparin sodium in saline at pH 7.4 assessed as binding constant by ITC analysis
[20] = Toxicity in ICR mouse assessed as histopathological changes in spleen at 25 mg/kg, iv administered as single dose through tail vein and measured after 14 days by H and E staining based analysis; format: organism-based; settings: in vivo, 336 h, time 14 day
Homo sapiens [21] = species: Homo sapiens; test: Reversal of anticoagulation of dalteparin sodium in human whole blood assessed as restoration of normal clotting time at 5 to 20 ug/ml incubated for 5 mins by thromboelastography; format: tissue-based; settings: dose 5-20 µg/ml
Homo sapiens [22] = species: Homo sapiens; test: Reversal of anticoagulation of unfractionated heparin in human whole blood assessed as restoration of normal clotting time at 5 to 20 ug/ml incubated for 5 mins by thromboelastography; format: tissue-based; settings: dose 5-20 µg/ml
Homo sapiens [23] = species: Homo sapiens; test: Reversal of anticoagulation of enoxaparin sodium in human whole blood assessed as restoration of normal clotting time at 5 to 20 ug/ml incubated for 5 mins by thromboelastography; format: tissue-based; settings: dose 5-20 µg/ml
[24] = Toxicity in ICR mouse assessed as histopathological changes in lungs at 25 mg/kg, iv administered as single dose through tail vein and measured after 14 days by H and E staining based analysis; format: organism-based, Lung; settings: in vivo, 336 h, time 14 day
Homo sapiens [25] = species: Homo sapiens; test: Reversal of anticoagulation of unfractionated heparin in human whole blood assessed as restoration of normal clotting strength at 2 to 20 ug/ml incubated for 5 mins by thromboelastography; format: tissue-based; settings: dose 2-20 µg/ml
Homo sapiens [26] = species: Homo sapiens; test: Neutralization of unfractionated heparin in human poor platelet plasma at 10 to 50 ug/ml by aPTT assay relative to control; format: cell-free; settings: dose 10-50 µg/ml
[27] = Induction of blood loss in ICR mouse at 0.4 mg/kg, iv treated for 5 mins; format: toxicity, organism-based; settings: in vivo
[28] = Binding affinity to nadroparin calcium in saline at pH 7.4 assessed as change in gibbs free energy by ITC analysis
[29] = Binding affinity to enoxaparin sodium in saline at pH 7.4 assessed as increase in fluorescence by measuring inflection point by fluorescence titration method
Homo sapiens [30] = species: Homo sapiens; test: Reversal of anticoagulation of dalteparin sodium in human whole blood assessed as restoration of normal clotting strength at 2 to 20 ug/ml incubated for 5 mins by thromboelastography; format: tissue-based; settings: dose 2-20 µg/ml
Blood [31] = test: Ex vivo neutralization of dalteparin sodium in Sprague-Dawley rat whole blood assessed as restoration of blood coagulation at 10 to 15 ug/ml incubated for 15 mins; format: functional, tissue-based; settings: dose 10-15 µg/ml
[32] = Binding affinity to unfractionated heparin in saline at pH 7.4 assessed as change in gibbs free energy by ITC analysis
Homo sapiens [33] = species: Homo sapiens; test: Reversal of anticoagulation of enoxaparin sodium in human whole blood assessed as minimum effective dose incubated for 5 mins by thromboelastography; format: tissue-based
[34] = Toxicity in ICR mouse assessed as histopathological changes in heart at 25 mg/kg, iv administered as single dose through tail vein and measured after 14 days by H and E staining based analysis; format: organism-based; settings: in vivo, 336 h, time 14 day

NCCOc1ccc(-c2cc[n+](Cc3ccc(C(c4ccc(C[n+]5ccc(-c6ccc(OCCN)c(OCCN)c6)cc5)cc4)(c4ccc(C[n+]5ccc(-c6ccc(OCCN)c(OCCN)c6)cc5)cc4)c4ccc(C[n+]5ccc(-c6ccc(OCCN)c(OCCN)c6)cc5)cc4)cc3)cc2)cc1OCCN.[Cl-].[Cl-].[Cl-].[Cl-]
Activity (Mus musculus [1]): 26 µL | Activity [2]: Non-Toxic | Activity (Homo sapiens [3]): 99% | Activity [4]: Non-Toxic | -TdeltaS [5]: -4.32 kcal/mol | Activity [6]: Non-Toxic | Activity (Homo sapiens [7]): Active | Activity (Mus musculus [8]): 26.1 µL | IP [9]: 2.4 | MED (Homo sapiens [10]): 4 µg/mL | APTT [11]: 23 s | Ka [12]: 1.87e+07 M⁻¹ | Activity (Homo sapiens [13]): 97% | Ka [14]: 4.78e+07 M⁻¹ | Activity (Bos taurus): Active | viability at 24 h, 300 ug/ml [15]: > 80% | Activity (Blood [16]): Active | Activity (Homo sapiens [17]): Active | Activity (Rattus norvegicus): 67 mm | deltaG [18]: -10.5 kcal/mol | Ka [19]: 1.79e+07 M⁻¹ | Activity [20]: Non-Toxic | Activity (Homo sapiens [21]): Active | Activity (Homo sapiens [22]): Active | Activity (Homo sapiens [23]): Active | Activity [24]: Non-Toxic | Activity (Homo sapiens [25]): Active | Activity (Homo sapiens [26]): 100% | Activity [27]: Non-Toxic | deltaG [28]: -9.92 kcal/mol | IP [29]: 2.2 | Activity (Homo sapiens [30]): Active | Activity (Blood [31]): Active | deltaG [32]: -10.2 kcal/mol | MED (Homo sapiens [33]): 4 µg/mL | Activity [34]: Non-Toxic
